Results published in the NIST ThermoML archive (doi:10.1016/j.jct.2016.02.013).

Assays:
[1] = for surface tension liquid-gas: Pendant drop shape; for electrical conductivity / viscosity / mass density: 101.33 kPa; for surface tension liquid-gas / electrical conductivity / viscosity / mass density: Liquid; for electrical conductivity: Alternating current cell with electrodes; for viscosity: Concentric cylinders viscometry; for mass density: Vibrating tube method
[2] = refractive index (Na D-line) (dimensionless); conditions: 101.33 kPa, Liquid, Standard Abbe refractometry

CC[n+]1cccc(C)c1.O=S(=O)([O-])C(F)(F)C(F)(F)C(F)(F)C(F)(F)F [1-ethyl-3-methylpyridinium perfluorobutanesulfonate]
[1]
Conditions	surface tension liquid-gas [mN/m]
298.3 K	26.35
303.4 K	26.16
313.4 K	25.77
323.6 K	25.39
332.9 K	25.12
343 K	24.7

CC[n+]1cccc(C)c1.O=C([O-])C(F)(F)C(F)(F)C(F)(F)C(F)(F)F [1-ethyl-3-methylpyridinium perfluoropentanoate]
Conditions	electrical conductivity, [1] [S/m]	mass density, [1] [kg/m3]	refractive index, [2]	surface tension liquid-gas, [1] [mN/m]	viscosity, [1] [mPa·s]
293.15 K	0.0915	1458.7	1.42282	–	196
298.15 K	0.12	1453.6	1.42137	–	147.1
298.3 K	–	–	–	26.83	–
303.15 K	0.155	1448.6	1.4199	–	110.8
308.15 K	0.194	1443.6	1.41844	–	85.39
308.2 K	–	–	–	26.49	–
313.15 K	0.239	1438.7	1.41697	–	67.81
317.9 K	–	–	–	26.07	–
318.15 K	0.289	1433.7	1.41553	–	53.67
323.15 K	0.355	1428.9	1.41406	–	43.6
328 K	–	–	–	25.71	–
328.15 K	–	1424	1.4126	–	35.94
333.15 K	–	1419.2	1.41114	–	30.35
338 K	–	–	–	25.31	–
338.15 K	–	1414.3	1.40955	–	25.32
343.15 K	–	1409.4	1.40811	–	21.61
347 K	–	–	–	24.94	–
348.15 K	–	1404.5	1.40672	–	18.61
353.15 K	–	1399.5	1.40531	–	16.39

Conditions	Normal melting temperature [°C]
[1], Crystal, DTA	2

CCCC[N+](CCCC)(CCCC)CCCC.O=S(=O)([O-])C(F)(F)C(F)(F)C(F)(F)C(F)(F)C(F)(F)C(F)(F)C(F)(F)C(F)(F)F [tetrabutylammonium heptadecafluorooctanesulfonate]
[1]
Conditions	surface tension liquid-gas [mN/m]
298.4 K	21.98
303.2 K	21.6
313.3 K	21.11
323.2 K	20.65
333.2 K	20.14
343 K	19.55

CCCC[N+](CCCC)(CCCC)CCCC.O=S(=O)([O-])C(F)(F)C(F)(F)C(F)(F)C(F)(F)F [tetrabutylammonium perfluorobutanesulfonate]
[1]
Conditions	surface tension liquid-gas [mN/m]
333.1 K	22.77
338 K	22.57
343.1 K	22.36
348.3 K	22.2
353.4 K	21.95
